From ChEMBL document CHEMBL1142186, “Multistep resistance selection and postantibiotic-effect studies of the antipneumococcal activity of LBM415 compared to other agents” (2007)
In brackets after ≈: the same amount, converted by molar mass.

Assays:
Format in all cases: functional
Streptococcus pneumoniae [1] = assay: Antibacterial activity against azithromycin resistance selected Streptococcus pneumoniae 1077 with 23S rRNA A2058G mutation after 10 antibiotic-free subcultures by macrodilution method
Streptococcus pneumoniae [2] = assay: Antibacterial activity against moxifloxacin resistance selected Streptococcus pneumoniae 1076 with ParC S79Y mutation after 10 antibiotic-free subcultures by macrodilution method
Streptococcus pneumoniae [3] = assay: Antibacterial activity against levofloxacin resistance selected Streptococcus pneumoniae 3009 with GyrA S81Y and ParC S79Y mutation after 10 antibiotic-free subcultures by macrodilution method
Streptococcus pneumoniae [4] = assay: Antibacterial activity against azithromycin resistance selected Streptococcus pneumoniae 2527 after 10 antibiotic-free subcultures by macrodilution method
Streptococcus pneumoniae [5] = assay: Antibacterial activity against moxifloxacin resistance selected Streptococcus pneumoniae 3676 with GyrA E85G, GyrB S478I and ParC S79Y mutation after 10 antibiotic-free subcultures by macrodilution method
Streptococcus pneumoniae [6] = assay: Antibacterial activity against gatifloxacin resistance selected Streptococcus pneumoniae 1076 with ParC S79Y mutation after 10 antibiotic-free subcultures by macrodilution method
Streptococcus pneumoniae [7] = assay: Antibacterial activity against clarithromycin resistance selected Streptococcus pneumoniae 3676 after 10 antibiotic-free subcultures by macrodilution method
Streptococcus pneumoniae [8] = assay: Antibacterial activity against azithromycin resistance selected Streptococcus pneumoniae 3243 with L22 insertion 93SFRPRA94 mutation after 10 antibiotic-free subcultures by macrodilution method
Streptococcus pneumoniae [9] = assay: Antibacterial activity against moxifloxacin resistance selected Streptococcus pneumoniae 3665 with GyrA S81Y mutation after 10 antibiotic-free subcultures by macrodilution method
Streptococcus pneumoniae [10] = assay: Antibacterial activity against moxifloxacin resistance selected Streptococcus pneumoniae 24 with GyrA S81Y, GyrB P413S and ParC S79F mutation after 10 antibiotic-free subcultures by macrodilution method
Streptococcus pneumoniae [11] = assay: Antibacterial activity against clarithromycin resistance selected Streptococcus pneumoniae 3009 after 10 antibiotic-free subcultures by macrodilution method
Streptococcus pneumoniae [12] = assay: Antibacterial activity against clarithromycin resistance selected Streptococcus pneumoniae 3665 after 10 antibiotic-free subcultures by macrodilution method
Streptococcus pneumoniae [13] = assay: Antibacterial activity against levofloxacin resistance selected Streptococcus pneumoniae 19 with GyrA S81Y and ParC D83Y mutation after 10 antibiotic-free subcultures by macrodilution method
Streptococcus pneumoniae [14] = assay: Antibacterial activity against clarithromycin resistance selected Streptococcus pneumoniae 3243 with 23S rRNA A2059T mutation after 10 antibiotic-free subcultures by macrodilution method
Streptococcus pneumoniae [15] = assay: Antibacterial activity against moxifloxacin resistance selected Streptococcus pneumoniae 3243 after 10 antibiotic-free subcultures by macrodilution method
Streptococcus pneumoniae [16] = assay: Antibacterial activity against gatifloxacin resistance selected Streptococcus pneumoniae 3009 after 10 antibiotic-free subcultures by macrodilution method
Streptococcus pneumoniae [17] = assay: Antibacterial activity against moxifloxacin resistance selected Streptococcus pneumoniae 19 with GyrA S81F mutation after 10 antibiotic-free subcultures by macrodilution method
Streptococcus pneumoniae [18] = assay: Antibacterial activity against gatifloxacin resistance selected Streptococcus pneumoniae 37 with GyrA S81Y, GyrB E474K and ParC S79Y mutation after 10 antibiotic-free subcultures by macrodilution method
Streptococcus pneumoniae [19] = assay: Antibacterial activity against Streptococcus pneumoniae assessed as period of suppression of bacterial growth
Streptococcus pneumoniae [20] = assay: Antibacterial activity against moxifloxacin resistance selected Streptococcus pneumoniae 3009 with GyrA S81F and ParC D83N mutation after 10 antibiotic-free subcultures by macrodilution method
Streptococcus pneumoniae [21] = assay: Antibacterial activity against Streptococcus pneumoniae 3665 by macrodilution method
Streptococcus pneumoniae [22] = assay: Antibacterial activity against Streptococcus pneumoniae 3009 by macrodilution method
Streptococcus pneumoniae [23] = assay: Antibacterial activity against clarithromycin resistance selected Streptococcus pneumoniae 3009 after 25 passages by macrodilution method
Streptococcus pneumoniae [24] = assay: Antibacterial activity against Streptococcus pneumoniae 3676 by macrodilution method
Streptococcus pneumoniae [25] = assay: Antibacterial activity against clarithromycin resistance selected Streptococcus pneumoniae 3676 after 44 passages by macrodilution method
Streptococcus pneumoniae [26] = assay: Antibacterial activity against clarithromycin resistance selected Streptococcus pneumoniae 3243 with 23S rRNA A2059T mutation after 41 passages by macrodilution method
Streptococcus pneumoniae [27] = assay: Antibacterial activity against Streptococcus pneumoniae 3243 by macrodilution method
Streptococcus pneumoniae [28] = assay: Antibacterial activity against clarithromycin resistance selected Streptococcus pneumoniae 3665 after 26 passages by macrodilution method

Structure (SMILES) | MIC (Streptococcus pneumoniae [1]) [µg/mL] | MIC (Streptococcus pneumoniae [2]) [µg/mL] | MIC (Streptococcus pneumoniae [3]) [µg/mL] | MIC (Streptococcus pneumoniae [4]) [µg/mL] | MIC (Streptococcus pneumoniae [5]) [µg/mL] | MIC (Streptococcus pneumoniae [6]) [µg/mL] | MIC (Streptococcus pneumoniae [7]) [µg/mL] | MIC (Streptococcus pneumoniae [8]) [µg/mL] | MIC (Streptococcus pneumoniae [9]) [µg/mL] | MIC (Streptococcus pneumoniae [10]) [µg/mL] | MIC (Streptococcus pneumoniae [11]) [µg/mL] | MIC (Streptococcus pneumoniae [12]) [µg/mL] | MIC (Streptococcus pneumoniae [13]) [µg/mL] | MIC (Streptococcus pneumoniae [14]) [µg/mL] | MIC (Streptococcus pneumoniae [15]) [µg/mL] | MIC (Streptococcus pneumoniae [16]) [µg/mL] | MIC (Streptococcus pneumoniae [17]) [µg/mL] | MIC (Streptococcus pneumoniae [18]) [µg/mL] | Post Antibiotic Effe (Streptococcus pneumoniae [19]) [h] | MIC (Streptococcus pneumoniae [20]) [µg/mL] | also measured
C=CC1=C(C(=O)O)N2C(=O)[C@@H](NC(=O)/C(=N\O)c3csc(N)n3)[C@H]2SC1 | 0.06 (≈ 0.152 µM) | 0.06 (≈ 0.152 µM) | 0.06 (≈ 0.152 µM) | 16 (≈ 40.5 µM) | 0.125 (≈ 0.316 µM) | 0.125 (≈ 0.316 µM) | 0.06 (≈ 0.152 µM) | 0.125 (≈ 0.316 µM) | 0.125 (≈ 0.316 µM) | 2 (≈ 5.06 µM) | 0.125 (≈ 0.316 µM) | 0.25 (≈ 0.632 µM) | 4 (≈ 10.1 µM) | 0.25 (≈ 0.632 µM) | 0.06 (≈ 0.152 µM) | 0.125 (≈ 0.316 µM) | 2 (≈ 5.06 µM) | 4 (≈ 10.1 µM) | 1.6 | 0.06 (≈ 0.152 µM) | –
CO/N=C(\C(=O)N[C@@H]1C(=O)N2C(C(=O)O)=C(COC(N)=O)CS[C@H]12)c1ccco1 [CEFUROXIME] | 0.03 (≈ 0.0707 µM) | 0.03 (≈ 0.0707 µM) | ≤ 0.016 | 16 (≈ 37.7 µM) | 0.125 (≈ 0.295 µM) | 0.125 (≈ 0.295 µM) | 0.125 (≈ 0.295 µM) | 0.5 (≈ 1.18 µM) | 0.5 (≈ 1.18 µM) | 2 (≈ 4.71 µM) | 0.03 (≈ 0.0707 µM) | 0.125 (≈ 0.295 µM) | 2 (≈ 4.71 µM) | 0.25 (≈ 0.589 µM) | 0.25 (≈ 0.589 µM) | 0.03 (≈ 0.0707 µM) | 2 (≈ 4.71 µM) | 2 (≈ 4.71 µM) | 1.5 | 0.03 (≈ 0.0707 µM) | –
CC[C@H]1OC(=O)[C@H](C)[C@@H](O[C@H]2C[C@@](C)(OC)[C@@H](O)[C@H](C)O2)[C@H](C)[C@@H](O[C@@H]2O[C@H](C)C[C@H](N(C)C)[C@H]2O)[C@](C)(OC)C[C@@H](C)C(=O)[C@H](C)[C@@H](O)[C@]1(C)O [CLARITHROMYCIN] | > 128 | > 128 | 0.5 (≈ 0.668 µM) | 16 (≈ 21.4 µM) | 4 (≈ 5.35 µM) | > 128 | 16 (≈ 21.4 µM) | 0.5 (≈ 0.668 µM) | 2 (≈ 2.67 µM) | > 128 | 64 (≈ 85.6 µM) | 8 (≈ 10.7 µM) | > 128 | 0.25 (≈ 0.334 µM) | 0.004 (≈ 0.00535 µM) | 2 (≈ 2.67 µM) | > 128 | > 128 | 3.8 | 4 (≈ 5.35 µM) | MIC (Streptococcus pneumoniae [21]): 2 µg/mL (≈ 2.67 µM); MIC (Streptococcus pneumoniae [22]): 16 µg/mL (≈ 21.4 µM); MIC (Streptococcus pneumoniae [23]): > 128 µg/mL; MIC (Streptococcus pneumoniae [24]): 4 µg/mL (≈ 5.35 µM); MIC (Streptococcus pneumoniae [25]): 32 µg/mL (≈ 42.8 µM); MIC (Streptococcus pneumoniae [26]): 0.25 µg/mL (≈ 0.334 µM); MIC (Streptococcus pneumoniae [27]): 0.016 µg/mL (≈ 0.0214 µM); MIC (Streptococcus pneumoniae [28]): 16 µg/mL (≈ 21.4 µM)
CO/N=C(\C(=O)N[C@@H]1C(=O)N2C(C(=O)O)=C(CSc3nc(=O)c(O)nn3C)CS[C@H]12)c1csc(N)n1 [CEFTRIAXONE] | 0.03 (≈ 0.0541 µM) | 0.016 (≈ 0.0289 µM) | 0.016 (≈ 0.0289 µM) | 2 (≈ 3.61 µM) | 0.03 (≈ 0.0541 µM) | 0.016 (≈ 0.0289 µM) | 0.03 (≈ 0.0541 µM) | 0.125 (≈ 0.225 µM) | 0.06 (≈ 0.108 µM) | 1 (≈ 1.8 µM) | 0.016 (≈ 0.0289 µM) | 0.03 (≈ 0.0541 µM) | 2 (≈ 3.61 µM) | 0.125 (≈ 0.225 µM) | ≤ 0.008 | 0.016 (≈ 0.0289 µM) | 2 (≈ 3.61 µM) | 2 (≈ 3.61 µM) | 1.3 | 0.03 (≈ 0.0541 µM) | –
